IC50 and melting point data for 13 molecules are collected here from paper PMC10765869, “Synthesis, design, biological evaluation, and computational analysis of some novel uracil-azole derivatives as cytotoxic agents” (BMC Chemistry, 2024).

Data set [1] relates to a studied cancer cell line. The arrangement: method as in PMID 32736079. The conditions noted are these: cited from earlier work.
The subject of data set [2] is Huha cell line. The arrangement: method as in PMID 33808444. The conditions noted are these: cited from earlier work.
Data set [3] has as its system Hela cell line. Details: method as in PMID 33808444. The conditions noted are these: cited from earlier work.
Data set [4] deals with MCF-7 (breast carcinoma) cell line. Description: MTT assay, MCF-7. The data set is classed as cell-based, human. The conditions noted are these: mean ± SD, triplicate. The text has this: (§1) The cytotoxic activity of the designed compounds (4a-4l) was obtained by MTT assay (standard 3-(4,5-dimethylthiazol-yl)-2,5-diphenyl-tetrazolium bromide) according to our previous protocols. Two human cancer cell lines including MCF-7 (breast carcinoma) and HEPG-2 (Hepatocellular carcinoma) were purchased from the National Cell Bank of Iran (NCBI, Pasteur Institute, Tehran, Iran). RPMI 1640 culture media was used to culture cancer cell lines. The media was supplemented with 10% fetal bovine serum (FBS) and 1% penicillin–streptomycin (Gibco, USA), and the cells were kept at 37 °C in a humidified CO2 incubator. For the MTT assay, trypsin/EDTA 0.5% solution (Gibco/USA) was applied to harvest cells and seeded in 96-well microplates at a density of 1 × 10^4 cells per well [26]. Five different concentrations of the designed compounds and Cisplatin as the positive control (1–200 μM) were used for treatment in triplicate times. Three untreated wells were used as the negative control. After 72 h, the media was changed by 100 μL fresh MTT solution and incubated for 4 h at 37 °C in the incubator to obtain formazan purple crystals. Finally, the media was removed and 150 μL of DMSO was added and incubated at 37 °C in dark for 10 min to dissolve the crystals. The absorbance of individual wells was read at 490 nm using a microplate ELISA reader. Excel 2016 and Curve Expert 1.4 were used to analyze the data. The data were presented as mean ± SD for each analysis.
A general note: Tetrazolium dyes change colour on reduction, which living cells bring about.

Data set [5] relates to normal lung cell line (MRC-5). The experiment in a line: MTT assay, MRC-5 normal cells. In kind it is cell-based.
Data set [6] has as its system HEPG-2 (Hepatocellular carcinoma) cell line. Description: MTT assay, HEPG-2. The conditions noted are these: mean ± SD, triplicate. The data set is classed as cell-based, human.
Source text: as §1

For data set [7], the system named is MCF-7 and HEPG-2 cell lines. The experiment in a line: MTT assay, ranges over both cancer cell lines. The conditions noted are these: Homo sapiens; range spans both cell lines. In kind it is cell-based.
Source text: as §1, with “Excel 2016 and Curve Expert 1.4 were used to analyze the data. The data were presented as mean ± SD for each analysis.” left out

Where [8] appears, read: Homo sapiens, MRC5, read-out: IC50 ± SD, MRC-5.

Like-named read-outs stand apart in the source and are kept apart here.

With `O=c1[nH]c(=O)n(Cc2ccc(-c3noc(-c4ccc(-c5ccccc5)cc4)n3)cc2)cc1F` [A], in data set [1], the IC50 is 0.88 µM.

In the case of `Cc1ccc(Cn2cc(Cn3c(Cl)cc(=O)n(C)c3=O)nn2)cc1` [B], the IC50 in data set [2] was 7.7 µM; in data set [3], 4.5 µM.

For `N.N.[Cl][Pt][Cl]` [Cis platin, Cisplatin, reference compound], the IC50 in data set [4] (72 h) is 20.7 ± 0.83 µM; in data set [5] (read-out: IC50 ± SD, MRC-5) it was 45.2 ± 2.5 µM; in data set [6] (72 h), 15.9 ± 1.83 µM.

In turn, `Cn1c(=O)cc(-n2ccnc2)n(Cc2ccccc2)c1=O` [Compound 4a, 3-methyl-1-(benzyl)-6-(H1-imidazole-1-yl) pyrimidine-2,4-(H1, H3) dione] came in with a melting point of 138 to 142 °C. Besides, in data set [4] (Homo sapiens, MCF7, 72 h), 150.5 ± 0.77 µM corresponded to half-maximal inhibition (IC50). Moreover, the IC50 in data set [5] (setting [8]) was greater than 200 µM. Moreover, the IC50 in data set [6] (Homo sapiens, HepG2, 72 h) was 193 ± 7.98 µM.

Molecule `Cc1cccc(Cn2c(-n3ccnc3)cc(=O)n(C)c2=O)c1` [Compound 4b, 3-methyl-1-(3-methylbenzyl)-6-(H1-imidazole-1-yl) pyrimidine-2,4-(H1, H3) dione] yielded a melting point of 123 to 124 °C. In data set [4] (Homo sapiens, MCF7, 72 h), this molecule showed an IC50 of 17.1 ± 1.3 µM. Besides, the IC50 in data set [5] (setting [8]) was found to be 61.8 ± 2.3 µM. The IC50 in data set [6] (Homo sapiens, HepG2, 72 h) was 48.5 ± 1.97 µM. This molecule also came in with an IC50 in data set [7] of 17.1 to 48.5 µM.

In turn, `Cc1ccc(Cn2c(-n3ccnc3)cc(=O)n(C)c2=O)cc1` [Compound 4c, 3-methyl-1-(4-methylbenzyl)-6-(H1-imidazole-1-yl) pyrimidine-2,4-(H1, H3) dione] had a melting point of 100 to 102 °C. Half-maximal inhibition in data set [4] (Homo sapiens, MCF7, 72 h) (IC50) was put at 26.1 ± 4.41 µM. Further, in data set [5] (setting [8]), the IC50 amounted to 101 ± 3.02 µM. This molecule also came in with an IC50 in data set [6] (Homo sapiens, HepG2, 72 h) of 27.2 ± 1.66 µM. This molecule also displayed an IC50 in data set [7] of 17.1 to 48.5 µM.

Consider `Cn1c(=O)cc(-n2ccnc2)n(Cc2ccc(Br)cc2)c1=O` [Compound 4d, 3-methyl-1-(4-bromobenzyl)-6-(H1-imidazole-1-yl) pyrimidine-2,4-(H1, H3) dione], for which the melting point lay in the range of 110 to 113 °C. Moreover, the half-maximal inhibitory concentration (IC50) in data set [4] (Homo sapiens, MCF7, 72 h) was found to be 131 ± 3.1 µM. Further, in data set [5] (setting [8]), the IC50 is greater than 200 µM. Besides, the IC50 in data set [6] (Homo sapiens, HepG2, 72 h) stood at 177 ± 4.06 µM.

As to `Cc1nccn1-c1cc(=O)n(C)c(=O)n1Cc1ccccc1` [Compound 4e, 3-methyl-1-(benzyl) 6-(2-methyl-H1-imidazol-1-yl) pyrimidine-2,4-(H1, H3) dione], the melting point lay in the range of 138 to 140 °C. This molecule also came in with an IC50 in data set [4] (Homo sapiens, MCF7, 72 h) of 92 ± 2.19 µM. In addition, the IC50 in data set [5] (setting [8]) is greater than 200 µM.

Turning to `Cc1ccc(Cn2c(-n3ccnc3C)cc(=O)n(C)c2=O)cc1` [Compound 4f, 3-methyl-1-(4-methylbenzyl)-6-(2-methyl-H1-imidazole-1-yl) pyrimidine-2,4-(H1, H3) dione], the melting point lay within 120 to 122 °C. Besides, 65.5 ± 3.1 µM corresponded to half-maximal inhibition in data set [4] (Homo sapiens, MCF7, 72 h) (IC50). Moreover, in data set [5] (setting [8]), the IC50 is greater than 200 µM. This molecule had an IC50 in data set [6] (Homo sapiens, HepG2, 72 h) of 55.9 ± 6.58 µM.

For `Cc1nccn1-c1cc(=O)n(C)c(=O)n1Cc1ccc(Br)cc1` [Compound 4g, 3-methyl-1-(4-bromobenzyl)-6-(2-methyl-H1-imidazole-1-yl) pyrimidine-2,4-(H1, H3) dione], the melting point was in the range of 160 to 162 °C. The molecule further had an IC50 in data set [4] (Homo sapiens, MCF7, 72 h) of 109 ± 3.74 µM. In data set [5] (setting [8]), the IC50 was greater than 200 µM. The IC50 in data set [6] (Homo sapiens, HepG2, 72 h) is 106 ± 3.03 µM.

`Cn1c(=O)cc(-n2cncn2)n(Cc2ccccc2)c1=O` [Compound 4h, 3-methyl-1-(benzyl)-6-(H1-1,2,4-triazole-1-yl) pyrimidine-2,4-(H1, H3) dione] returned a melting point of 91 to 93 °C.

As for `Cc1cccc(Cn2c(-n3cncn3)cc(=O)n(C)c2=O)c1` [Compound 4i, 3-methyl-1-(3-methylbenzyl)-6-(H1-1,2,4-triazole-1-yl) pyrimidine-2,4-(H1, H3) dione], the melting point lay within 125 to 128 °C. Besides, it took 43.1 ± 2.07 µM to reach half-maximal inhibition in data set [4] (Homo sapiens, MCF7, 72 h) (IC50). Besides, in data set [5] (setting [8]), the IC50 was greater than 200 µM. Moreover, the midpoint of inhibition in data set [6] (Homo sapiens, HepG2, 72 h), the IC50, lay at 65.4 ± 2.15 µM.

`Cc1ccc(Cn2c(-n3cncn3)cc(=O)n(C)c2=O)cc1` [Compound 4j, 3-methyl-1-(4-methylbenzyl)-6-(H1-1,2,4-triazole-1-yl) pyrimidine-2,4-(H1, H3) dione] displayed a melting point of 116 to 118 °C. Besides, it took 16.2 ± 1.02 µM to reach half-maximal inhibition in data set [4] (Homo sapiens, MCF7, 72 h) (IC50). Moreover, the IC50 in data set [5] (setting [8]) came to 57.3 ± 2.08 µM. In data set [6] (Homo sapiens, HepG2, 72 h), the half-maximal inhibitory concentration (IC50) is 7.56 ± 5.28 µM.

As usually defined, the IC50 is the concentration at which inhibition is half-maximal. By melting point is commonly meant the temperature, or range, at which the solid turns liquid.
